Test results reported in ChEMBL document CHEMBL4765228, “Indole-like Trk receptor antagonists” (Eur J Med Chem, 2016).

Tests used:
[1] = target: T1, High affinity nerve growth factor receptor (Homo sapiens, UniProt P04629); assay: Inhibition of TrkA (unknown origin)
[2] = target: T1, High affinity nerve growth factor receptor; assay: Inhibition of GST-fused TrkA (unknown origin) expressed in SF9 cells using H2N-RRRAAAEEIYGEINH2 peptide as substrate preincubated with ATP and Mg and measured by microtiter plate reader analysis
[3] = target: T1, High affinity nerve growth factor receptor; assay: Inhibition of GAL4 fused TrkA (unknown origin) expressed in PC12 cells transfected with pFA2-Elk plasmid and pFR-luciferase plasmid measured for 18 hrs by luciferase reporter gene assay; assay type: cell-based, Rattus norvegicus, PC-12

T1 sequence (P04629 whole entry, the tested form may be a part): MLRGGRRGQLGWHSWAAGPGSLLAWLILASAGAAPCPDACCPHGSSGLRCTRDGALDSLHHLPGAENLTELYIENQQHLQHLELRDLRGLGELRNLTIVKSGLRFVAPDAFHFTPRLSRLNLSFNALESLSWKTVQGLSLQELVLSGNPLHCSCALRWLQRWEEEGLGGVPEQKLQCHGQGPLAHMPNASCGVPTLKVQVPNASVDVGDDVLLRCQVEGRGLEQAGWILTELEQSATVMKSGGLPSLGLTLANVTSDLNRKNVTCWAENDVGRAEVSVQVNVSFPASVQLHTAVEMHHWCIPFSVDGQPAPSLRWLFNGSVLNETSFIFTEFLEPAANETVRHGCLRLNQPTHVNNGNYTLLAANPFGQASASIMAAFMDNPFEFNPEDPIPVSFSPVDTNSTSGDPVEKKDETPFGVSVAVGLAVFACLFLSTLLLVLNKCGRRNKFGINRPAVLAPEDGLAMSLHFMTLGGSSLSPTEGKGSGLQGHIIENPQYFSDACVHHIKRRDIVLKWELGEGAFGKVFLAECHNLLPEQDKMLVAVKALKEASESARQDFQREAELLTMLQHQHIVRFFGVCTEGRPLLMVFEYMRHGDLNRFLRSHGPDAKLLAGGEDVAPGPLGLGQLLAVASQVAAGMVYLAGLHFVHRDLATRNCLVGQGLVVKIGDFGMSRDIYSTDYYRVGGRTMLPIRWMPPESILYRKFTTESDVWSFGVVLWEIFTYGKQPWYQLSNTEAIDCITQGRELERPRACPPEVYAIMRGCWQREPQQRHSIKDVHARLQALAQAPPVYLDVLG

| Compound | IC50 [1] | IC50 [2] | IC50 [3] |
| --- | --- | --- | --- |
| Cc1[nH]c2ccccc2c1/C=C1\C(=O)Nc2ccccc21 | > 10000 nM | – | – |
| NS(=O)(=O)c1ccc(N/C=C2\C(=O)Nc3ccccc32)cc1 | – | 63 nM | – |
| NS(=O)(=O)c1ccc2c(c1)/C(=C/c1c[nH]c3ccc(O)cc13)C(=O)N2 | 5.22 nM | – | 366 nM |
| NS(=O)(=O)c1ccc2c(c1)/C(=C/c1c[nH]c3ccccc13)C(=O)N2 | 11.1 nM | – | 342 nM |
| O=C1Nc2ccccc2/C1=C\c1c(Cl)[nH]c2ccccc12 | > 10000 nM | – | – |
| Cn1cc(/C=C2\C(=O)Nc3ccccc32)c2ccccc21 | 25.7 nM | – | 998 nM |
